Source: patent US11013696B2, “Lipids and lipid compositions for the delivery of active agents” (Novartis AG, priority 2013, dated 2021)

Test: siRNA encapsulation in lipid nanoparticles (SYBR Gold)
Assay type: physicochemical
Conditions: Table 2; FVII siRNA in LNP with the cationic lipid
Method: The lipid nanoparticles (LNPs) were formed by mixing equal volumes of lipids dissolved in alcohol with siRNA dissolved in a citrate buffer by an impinging jet process. The lipid solution contains a cationic lipid compound of the invention, a helper lipid (cholesterol), an optional neutral lipid (DSPC) and a PEG (PEG) lipid at a concentration of 8-16 mg/mL with a target of 12 mg/mL in an alcohol. The siRNA to total lipid ratio is approximately 0.05 (wt/wt). Where a LNP formulation contains four lipid components, the molar ratios of the lipids ranges from 20 to 70 mole percent for the cationic lipid with a target of 40-60, the mole percent of helper lipid ranges from 20 to 70 with a target of 30 to 50, the mole percent of neutral lipid ranges from 0-30, the mole percent of PEG lipid has a range from 1 to 6 with a target of 2 to 5. The concentration of siRNA solution ranges from 0.7 to 1.0 mg/mL with a target of 0.8 to 0.9 mg/mL in a sodium citrate: sodium chloride buffer pH 4-6, with a target of 4.5-5.5. The LNPs are formed by mixing equal volumes of lipid solution in ethanol with siRNA dissolved in a citrate buffer by an impinging jet process through a mixing device with ID ranging from 0.25 to 2.0 mm at a flow rate from 10 to 640 mL/min. The mixed LNP solution is held at room temperature for 0-24 hrs prior to a dilution step. The solution is then concentrated and diafiltered with suitable buffer by ultrafiltration or dialysis process using membranes with a MW cutoff from 30 to 500 KD. The final product is sterile filtered and stored at 4° C.
The lipid nanoparticles (LNPs) were formed by mixing equal volumes of lipids dissolved in alcohol with siRNA dissolved in a citrate buffer by an impinging jet process. The lipid solution contains a cationic lipid compound of the invention, a helper lipid (cholesterol), an optional neutral lipid (DSPC) and a stealth lipid (5010, S024, S027, or S031) at a concentration of 8-16 mg/mL with a target of 12 mg/mL in an alcohol. The siRNA to total lipid ratio is approximately 0.05 (wt/wt). Where a LNP formulation contains four lipid components, the molar ratios of the lipids ranges from 20 to 70 mole percent for the cationic lipid with a target of 40-60, the mole percent of helper lipid ranges from 20 to 70 with a target of 30 to 50, the mole percent of neutral lipid ranges from 0-30, the mole percent of PEG lipid has a range from 1 to 6 with a target of 2 to 5. The concentration of siRNA solution ranges from 0.7 to 1.0 mg/mL with a target of 0.8 to 0.9 mg/mL in a sodium citrate: sodium chloride buffer pH 4-6, with a target of 4.5-5.5. The LNPs are formed by mixing equal volumes of lipid solution in ethanol with siRNA dissolved in a citrate buffer by an impinging jet process through a mixing device with ID ranging from 0.25 to 2.0 mm at a flow rate from 10 to 640 mL/min. The mixed LNP solution is held at room temperature for 0-24 hrs prior to a dilution step. The solution is then concentrated and diafiltered with suitable buffer by ultrafiltration process using membranes with a MW cutoff from 30 to 500 KD. The final product is sterile filtered and stored at 4° C.
SYBR Gold flourescence reagent is used for the determination of siRNA encapsulation in the DLP's. DLP's with and without triton x-100 are used to determine the free siRNA and total siRNA amounts. DLP's samples with and without triton X-100 were excited at 485 nm and flourescence emission is measured at 530 nm. Encapsulation efficiency is calculated based on the following formula: Encapsulation efficiency:[([…])/(total siRNA concentration)]×100% Encapsulation Data

| SMILES | % encapsulation siRNA FVII [%] |
| --- | --- |
| CCCCCCCCCCCCC(CCOC(=O)CCC(COC(=O)CCCCCCC)COC(=O)CCCCCCC)OC(=O)OCCCN(CC)CC (stereo not shown) [Example 4, 2-(10-dodecyl-3-ethyl-8,14-dioxo-7,9,13-trioxa-3-azahexadecan-16-yl)propane-1,3-diyl dioctanoate] | 88.6 |
| CCCCCCCCCCCCC(CCOC(=O)CCC(OCC(CC)CCCC)OCC(CC)CCCC)OC(=O)OCCCN(CC)CC (stereo not shown) [Example 12, 3-(((3-(diethylamino)propoxy)carbonyl)oxy)pentadecyl 4,4-bis((2-ethylhexyl)oxy)butanoate] | 91.7 |
| CCCCCCCCCCCCC(CCOC(=O)CCCCCCC(OCCCC)OCCCC)OC(=O)OCCCN(CC)CC (stereo not shown) [Example 20, 3-(((3-(diethylamino)propoxy)carbonyl)oxy)pentadecyl 8,8-dibutoxyoctanoate] | 76.7 |
| CCCCCCCCCCCCC(CCOC(=O)CC(CCCCCCCC)CCCCCCCC)OC(=O)OCCCN(C)C (stereo not shown) [Example 24, 3-(((3-(dimethylamino)propoxy)carbonyl)oxy)pentadecyl 3-octylundecanoate] | 86.8 |
| CCCCCCCCCCCCC(CCOC(=O)C=C(CCCCCCCC)CCCCCCCC)OC(=O)OCCCN(C)C (stereo not shown) [Example 25, 3-(((3-(dimethylamino)propoxy)carbonyl)oxy)pentadecyl 3-octylundec-2-enoate] | 87.1 |
| CCCCCCCCCCCCC(CCOC(=O)CCCCC=C(CCCCCC)CCCCCC)OC(=O)OCCCN(C)C (stereo not shown) [Example 26, 3-(((3-(dimethylamino)propoxy)carbonyl)oxy)pentadecyl 7-hexyltridec-6-enoate] | 89.8 |
| CCCCCCCCCCCCC(CCOC(=O)CCCCCCCC(CCCCC)CCCCC)OC(=O)OCCCN(C)C (stereo not shown) [Example 27, 3-(((3-(dimethylamino)propoxy)carbonyl)oxy)pentadecyl 9-pentyltetradecanoate] | 86.6 |
| CCCCCCCCCCCCC(CCOC(=O)CCCC(CCCCCCC)CCCCCCC)OC(=O)OCCCN(C)C (stereo not shown) [Example 29, 3-(((3-(dimethylamino)propoxy)carbonyl)oxy)pentadecyl 5-heptyldodecanoate] | 86.1 |
| CCCCC/C=C\C/C=C\CCCCCCCC(=O)OCCC(CCCCCCCCCCCC)OC(=O)OCCCN(C)C (stereo not shown) [Example 43, (9Z,12Z)-3-(((3-(dimethylamino)propoxy)carbonyl)oxy)pentadecyl octadeca-9,12-dienoate] | 86.8 |

Test: Percent encapsulation of mRNA in lipid nanoparticles (Quant-iT Ribogreen)
Assay type: physicochemical
Conditions: Table 2; leptin mRNA in LNP with the cationic lipid
Method: All equipment and disposable supplies are certified free of RNase activity by the manufacturer or rendered RNase free by use of the RNaseZap reagent (LifeTechnologies). mRNA is encapsulated at a cationic lipid amine to mRNA phosphate (N:P) molar ratio of 4:1. Lipids (cationic lipid, DSPC, cholesterol and lipidated PEG or stealth lipid) are dissolved in ethanol. The molar ratios are 40:10:38:2, respectively. The mixture is sonicated briefly, then gently agitated for 5 minutes and then maintained at 37° C. until use. mRNA is exchanged into citrate buffer pH 5.8-6.0 by use of Amicon Ultra-15 centrifugal concentrators, and the final concentration is adjusted to 0.5 mg/ml and held at 37° C. until use. An equal volume of lipids in ethanol, mRNA in citrate buffer, and citrate buffer alone are drawn into disposable syringes. Tubing leading from syringes containing lipids and mRNA are attached to the T junction, and tubing leading from the syringe containing citrate buffer alone is paired with the tubing exiting the T-junction over a collection vessel containing a stir bar on an active stir plate. Syringes are placed in a syringe pump set to expel contents at a flow rate of 1 ml per minute.
The pump is activated, and the collected mRNA in lipid nanoparticles is transferred to SnakeSkin dialysis tubing (10,000 MWCO, Thermo Scientific). Material is dialyzed against RNAse- and pyrogen-free 1× phosphate buffered saline overnight at 4° C.
Percent encapsulation of mRNA in lipid nanoparticles is determined using the Quant-iT Ribogreen RNA Assay kit (Life Technologies). The LNP-mRNA suspension is assayed in buffer (mRNA outside the particle), and buffer plus Triton X-100 detergent (total mRNA). The difference calculated is the mRNA inside the particle. Prepare a 1000 ng/mL stock from the RNA provided in the kit and use this to generate a standard curve (0 ng/ml, 15.63-1000 ng/ml) in TE and TE+0.75% Triton X-100. Prepare LNP-mRNA samples in TE buffer and TE buffer +0.75% Triton X-100 with appropriate dilution so that reading is in the range of standard curve (400-2,000 fold). In a 384-well plate (Costar non-treated #3573) add 0.04 ml of standard (in duplicate) or sample (in triplicate) per well. Dilute Ribogreen reagent 240-fold in TE buffer and add 0.06 ml per well. Mix contents of wells and measure fluorescence (excitation=480 nm, emission=520 nm). Subtract background values (no RNA) from standard and test sample values and determine the concentrations of RNA in the samples using the standard curves. Determine the percent encapsulation of the sample by dividing the difference in concentrations between sample+triton and sample in buffer alone by the sample+triton concentration.

| SMILES | % encapsulation mRNA Leptin [%] |
| --- | --- |
| CCCCCCCCOC(CCCCC(=O)OCCC(CCCOC(=O)CCCCCCC)OC(=O)OCCCN(CC)CC)OCCCCCCCC (stereo not shown) [Example 128, 6-((6,6-bis(octyloxy)hexanoyl)oxy)-4-(((3-(diethylamino)propoxy)carbonyl)oxy)hexyl octanoate] | 86.2 |
| CCCCCCCCCCCCC(CCCC(=O)OCCCC(OCCCCCCCC)OCCCCCCCC)OC(=O)OCCCN(CC)CC (stereo not shown) [Example 129, 4,4-bis(octyloxy)butyl 5-(((3-(diethylamino)propoxy)carbonyl)oxy)heptadecanoate] | 96.8 |
| CCCCCCCCCCCCC(CCOC(=O)OCCCC(OCCCCCCCC)OCCCCCCCC)OC(=O)OCCCN(CC)CC (stereo not shown) [Example 130, 4,4-bis(octyloxy)butyl (3-(diethylamino)propyl) pentadecane-1,3-diyl dicarbonate] | 97.8 |
| CCCCCCCCCCCCC(CCCOC(=O)CCCCC(COC(=O)CCCCCCC)COC(=O)CCCCCCC)OC(=O)C1(C)CCN(C)C1 (stereo not shown) [Example 132, 2-(5-((4-((1,3-dimethylpyrrolidine-3-carbonyl)oxy)hexadecyl)oxy)-5-oxopentyl)propane-1,3-diyl dioctanoate] | 95.5 |
| CCCCCCCCCCCCC(CCCOC(=O)CCCCC(COC(=O)CCCCCCC)COC(=O)CCCCCCC)OC(=O)O[C@H]1CCN(C)C1 (stereo partly drawn) [Example 134, 2-(5-((4-(((((S)-1-methylpyrrolidin-3-yl)oxy)carbonyl)oxy)hexadecyl)oxy)-5-oxopentyl)propane-1,3-diyl dioctanoate] | 96.6 |
| CCCCCCCCCCCCC(CCCOC(=O)CCCCC(COC(=O)CCCCCCC)COC(=O)CCCCCCC)OC(=O)O[C@@H]1CCN(C)C1 (stereo partly drawn) [Example 135, 2-(5-((4-(((((R)-1-methylpyrrolidin-3-yl)oxy)carbonyl)oxy)hexadecyl)oxy)-5-oxopentyl)propane-1,3-diyl dioctanoate] | 96.2 |
| CCCCCCCCCCCCC(CCCOC(=O)CCCCC(COC(=O)CCCCCCC)COC(=O)CCCCCCC)OC(=O)OC1CCN(C)CC1 (stereo not shown) [Example 137, 2-(5-((4-((((1-methylpiperidin-4-yl)oxy)carbonyl)oxy)hexadecyl)oxy)-5-oxopentyl)propane-1,3-diyl dioctanoate] | 98.1 |
| CCCCCCCCCCCCC(CCCOC(=O)CCCCC(COC(=O)CCCCCCC)COC(=O)CCCCCCC)OC(=O)OCCCN(CC)CC (stereo not shown) [Example 138, 2-(10-dodecyl-3-ethyl-8,15-dioxo-7,9,14-trioxa-3-azanonadecan-19-yl)propane-1,3-diyl dioctanoate] | 92.9 |
| CCCCCCCCCCCCC(CCOC(=O)CCCCC(COC(=O)CCCCCCC)COC(=O)CCCCCCC)OC(=O)OCCCN1CCCCC1 (stereo not shown) [Example 141, 2-(5-oxo-5-((3-(((3-(piperidin-1-yl)propoxy)carbonyl)oxy)pentadecyl)oxy)pentyl)propane-1,3-diyl dioctanoate] | 94.9 |
| CCCCCCCCCCCCC(CCOC(=O)OCCCN(CC)CC)OC(=O)CCCCC(COC(=O)CCCCCCC)COC(=O)CCCCCCC (stereo not shown) [Example 142, 2-(12-dodecyl-3-ethyl-8,14-dioxo-7,9,13-trioxa-3-azaoctadecan-18-yl)propane-1,3-diyl dioctanoate] | 92.5 |
